Data from ChEMBL document CHEMBL1201862, “PubChem BioAssay data set” (2004).
Active and inactive are the calls of the source.

Experiments:
[1] = biological target: Mu-type opioid receptor (Homo sapiens, UniProt P35372); test: SAR Analysis of Antagonists of the MOR Receptor using an Image-Based Assay - Set 3. [Related pubchem assays (depositor defined):AID1777, AID1785, AID1786, AID1966, AID2133, AID2136, AID2284, AID2285, AID2420]; format: functional
[2] = biological target: Delta-type opioid receptor (Homo sapiens, UniProt P41143); test: SAR Analysis of Antagonists of the DOR Receptor using an Image-Based Assay - Set 3. [Related pubchem assays (depositor defined):AID1777, AID1785]; format: functional;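 note: U2OS cells expressing DOR1 and beta-arrestin GFP stimulated with 100 nM SNC80; imaging of GFP-tagged beta-arrestin moving into spots after receptor activation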
[3] = biological target: T1, Kappa-type opioid receptor (Homo sapiens, UniProt P41145); test: SAR analysis of small molecule antagonists of the kappa opioid receptor via a luminescent beta-arrestin assay - Set 3. [Related pubchem assays (depositor defined):AID1777, AID1778, AID1785, AID1786, AID1966, AID2133, AID2136, AID2285, AID2495]; format: functional
[4] = biological target: T1, Kappa-type opioid receptor; test: SAR analysis of Antagonists of the Kappa Opioid Receptor (KOR) using an Image-Based Assay - Set 3. [Related pubchem assays (depositor defined):AID1777, AID1785]; format: functional
[5] = biological target: T1, Kappa-type opioid receptor; test: SAR analysis of small molecule antagonists of the kappa opioid receptor via a luminescent beta-arrestin assay - Set 6. [Related pubchem assays (depositor defined):AID1777, AID1778, AID1785, AID1786, AID1966, AID2133, AID2136, AID2285]; format: functional
[6] = biological target: T1, Kappa-type opioid receptor; test: SAR analysis of small molecule antagonists of the kappa opioid receptor via a luminescent beta-arrestin assay - Set 4. [Related pubchem assays (depositor defined):AID1777, AID1778, AID1785, AID1786, AID1966, AID2133, AID2136, AID2285]; format: functional
[7] = biological target: T1, Kappa-type opioid receptor; test: SAR analysis of Antagonists of the Kappa Opioid Receptor (KOR) using an Image-Based Assay - Set 4. [Related pubchem assays (depositor defined):AID1777, AID1785]; format: functional
[8] = biological target: T2, Coagulation factor XII (Homo sapiens, UniProt P00748); test: FXIIa inhibitor potency, concentration-response, biochemical (AID 716); format: functional
T2 sequence (P00748 whole entry): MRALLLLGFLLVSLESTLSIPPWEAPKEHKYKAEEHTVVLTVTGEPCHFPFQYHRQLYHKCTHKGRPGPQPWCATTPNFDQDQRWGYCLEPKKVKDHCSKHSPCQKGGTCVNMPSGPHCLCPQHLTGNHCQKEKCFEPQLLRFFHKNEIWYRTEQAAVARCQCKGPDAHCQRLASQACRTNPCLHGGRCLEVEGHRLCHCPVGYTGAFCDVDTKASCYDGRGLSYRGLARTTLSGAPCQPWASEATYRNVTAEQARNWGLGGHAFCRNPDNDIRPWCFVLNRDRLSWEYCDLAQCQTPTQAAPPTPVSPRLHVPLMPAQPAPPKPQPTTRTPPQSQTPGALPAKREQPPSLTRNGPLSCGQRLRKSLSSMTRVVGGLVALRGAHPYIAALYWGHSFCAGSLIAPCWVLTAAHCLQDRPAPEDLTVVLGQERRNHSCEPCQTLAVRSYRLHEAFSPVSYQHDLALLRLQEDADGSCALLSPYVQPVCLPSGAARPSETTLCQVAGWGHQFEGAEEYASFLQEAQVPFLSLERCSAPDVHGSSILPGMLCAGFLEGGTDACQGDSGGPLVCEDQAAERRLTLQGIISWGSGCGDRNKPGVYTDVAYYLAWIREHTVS

[9] = tested on: BJ; test: cytotoxicity toward BJ-TERT fibroblasts, dose response, cell-based, RAS-independent, luminescence (AID 1933); format: functional; conditions: Homo sapiens
[10] = tested on: BJ; test: cells; format: functional, cell-based; conditions: Homo sapiens
[11] = tested on: BJ; test: cytotoxicity toward BJ-TERT-LT-ST fibroblasts, dose response, cell-based, RAS-independent, luminescence (AID 1935); format: functional; conditions: Homo sapiens;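 note: BJ fibroblasts immortalized with TERT plus LT and ST oncogenes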
[12] = cytotoxicity toward DRD oncogenic fibroblasts, dose response, cell-based, non-viral oncogenic, luminescence (AID 1934); format: functional; conditions: Homo sapiens
[13] = biological target: Glutathione S-transferase omega-1 (Homo sapiens, UniProt P78417); test: GSTO1 inhibitor potency, recombinant enzyme, late-stage follow-up, biochemical, SE-Rh probe, in-gel fluorescence, powder samples (AID 463081); format: functional
[14] = (§1) Late stage assay provider results from the probe development effort to identify inhibitors of GSTO1: luminescence-based […] dose response assay to determine cytotoxicity of inhibitor compounds. [Related pubchem assays (depositor defined):AID1515, AID1974, AID2175, AID2176, AID463081, AID463098, AID463101, AID463102, AID463110, AID463142] Panel member name: Assay 1: % Surviving cells, serum-free media; format: toxicity, cell-based
[15] = as §1, with “Assay 2:” for “Assay 1:”, “cells,” for “cells, serum-free”, “media plus FCS” for “media”; format: toxicity, cell-based
[16] = biological target: T3, Microphthalmia-associated transcription factor (Homo sapiens, UniProt O75030); test: TRPM1 promoter luciferase signal decrease, dose response, MITF inhibitor project, cell-based, SK-MEL-5, cherry-picked, set 3 (AID 493073); format: functional
T3 sequence (O75030 whole entry): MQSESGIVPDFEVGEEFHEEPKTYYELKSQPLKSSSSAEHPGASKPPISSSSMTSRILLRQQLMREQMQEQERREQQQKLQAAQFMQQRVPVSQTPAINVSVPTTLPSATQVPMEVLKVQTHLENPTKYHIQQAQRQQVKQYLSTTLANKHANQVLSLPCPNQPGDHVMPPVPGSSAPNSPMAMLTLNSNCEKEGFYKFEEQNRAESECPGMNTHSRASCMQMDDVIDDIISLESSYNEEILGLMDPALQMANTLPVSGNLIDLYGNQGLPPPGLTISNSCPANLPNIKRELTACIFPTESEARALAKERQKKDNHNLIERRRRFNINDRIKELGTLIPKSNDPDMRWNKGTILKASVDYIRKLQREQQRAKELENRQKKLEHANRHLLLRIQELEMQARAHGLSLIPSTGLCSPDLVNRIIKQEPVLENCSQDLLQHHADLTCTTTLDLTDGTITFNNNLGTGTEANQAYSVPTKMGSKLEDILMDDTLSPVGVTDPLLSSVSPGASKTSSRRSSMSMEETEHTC

[17] = biological target: T4, Replicative DNA helicase DnaB (Mycobacterium tuberculosis, UniProt P9WMR3); test: DnaB intein splicing inhibitors, dose response, biochemical, cell-free fluorescence (AID 449749); format: functional
T4 sequence (P9WMR3 whole entry): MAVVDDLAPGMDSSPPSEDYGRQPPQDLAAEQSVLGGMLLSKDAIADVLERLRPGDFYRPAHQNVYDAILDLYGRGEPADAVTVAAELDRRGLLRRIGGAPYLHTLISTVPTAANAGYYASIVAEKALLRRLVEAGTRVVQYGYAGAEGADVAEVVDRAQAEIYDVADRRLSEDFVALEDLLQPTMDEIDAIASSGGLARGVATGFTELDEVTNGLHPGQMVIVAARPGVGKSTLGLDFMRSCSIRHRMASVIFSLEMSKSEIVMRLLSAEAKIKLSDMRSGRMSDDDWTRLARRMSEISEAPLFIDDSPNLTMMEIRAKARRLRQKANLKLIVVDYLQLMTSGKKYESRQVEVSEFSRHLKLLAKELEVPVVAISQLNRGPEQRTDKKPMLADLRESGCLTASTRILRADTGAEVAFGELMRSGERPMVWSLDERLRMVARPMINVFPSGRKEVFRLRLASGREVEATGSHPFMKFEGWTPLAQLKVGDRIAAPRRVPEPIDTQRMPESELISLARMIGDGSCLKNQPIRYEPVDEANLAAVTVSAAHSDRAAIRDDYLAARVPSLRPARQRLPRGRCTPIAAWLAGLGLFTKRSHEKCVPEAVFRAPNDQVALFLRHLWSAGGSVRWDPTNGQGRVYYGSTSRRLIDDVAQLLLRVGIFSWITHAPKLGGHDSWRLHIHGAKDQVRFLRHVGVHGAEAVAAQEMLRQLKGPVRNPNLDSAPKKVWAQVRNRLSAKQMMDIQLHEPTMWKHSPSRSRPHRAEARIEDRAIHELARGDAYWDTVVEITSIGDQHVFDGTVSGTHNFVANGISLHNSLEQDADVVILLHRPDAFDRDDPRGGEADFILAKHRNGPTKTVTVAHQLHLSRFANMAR

[18] = biological target: T5, Protein RecA (Mycobacterium tuberculosis, UniProt P9WHJ3); test: Fluorescence Cell-Free Homogeneous Dose Retest to Identify Inhibitors of RecA-Intein Splicing Activity. [Related pubchem assays (depositor defined):AID2097, AID2223, AID489010, AID492950]; format: functional
T5 sequence (P9WHJ3 whole entry): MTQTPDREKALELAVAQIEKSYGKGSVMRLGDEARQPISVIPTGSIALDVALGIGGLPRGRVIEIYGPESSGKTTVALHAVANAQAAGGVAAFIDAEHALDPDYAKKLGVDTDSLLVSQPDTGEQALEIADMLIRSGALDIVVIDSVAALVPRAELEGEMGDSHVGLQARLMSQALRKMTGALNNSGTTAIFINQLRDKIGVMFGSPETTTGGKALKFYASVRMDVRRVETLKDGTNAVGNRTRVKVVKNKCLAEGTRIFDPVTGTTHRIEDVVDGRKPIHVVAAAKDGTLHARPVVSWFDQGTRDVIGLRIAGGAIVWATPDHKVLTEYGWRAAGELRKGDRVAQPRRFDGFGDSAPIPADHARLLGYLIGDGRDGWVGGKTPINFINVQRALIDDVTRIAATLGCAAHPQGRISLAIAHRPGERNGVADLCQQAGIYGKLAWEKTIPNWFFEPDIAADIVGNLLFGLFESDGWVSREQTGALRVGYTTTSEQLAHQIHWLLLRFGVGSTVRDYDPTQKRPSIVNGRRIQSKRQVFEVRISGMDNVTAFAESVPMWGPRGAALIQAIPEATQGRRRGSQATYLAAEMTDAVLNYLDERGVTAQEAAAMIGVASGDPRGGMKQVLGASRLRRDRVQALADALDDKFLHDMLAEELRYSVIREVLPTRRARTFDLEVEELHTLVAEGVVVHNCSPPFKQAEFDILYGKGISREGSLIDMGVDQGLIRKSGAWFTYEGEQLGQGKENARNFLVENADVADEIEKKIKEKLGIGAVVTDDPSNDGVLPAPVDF

[19] = biological target: Paired box protein Pax-8 (Homo sapiens, UniProt Q06710); test: inhibitors of PAX8-driven TPO luciferase reporter, dose response, RMG-I cells, cherry-pick (AID 687027); format: functional, cell-based;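 note: luciferase reporter driven by Pax8 target thyroperoxidase promoter measured by SteadyGlo luminescence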
[20] = non-specific cell cytotoxicity, dose response, cytotoxicity control for PAX8 inhibitor project, plate reader, dry powder samples (AID 743021); format: functional, cell-based

T1 sequence (P41145 whole entry): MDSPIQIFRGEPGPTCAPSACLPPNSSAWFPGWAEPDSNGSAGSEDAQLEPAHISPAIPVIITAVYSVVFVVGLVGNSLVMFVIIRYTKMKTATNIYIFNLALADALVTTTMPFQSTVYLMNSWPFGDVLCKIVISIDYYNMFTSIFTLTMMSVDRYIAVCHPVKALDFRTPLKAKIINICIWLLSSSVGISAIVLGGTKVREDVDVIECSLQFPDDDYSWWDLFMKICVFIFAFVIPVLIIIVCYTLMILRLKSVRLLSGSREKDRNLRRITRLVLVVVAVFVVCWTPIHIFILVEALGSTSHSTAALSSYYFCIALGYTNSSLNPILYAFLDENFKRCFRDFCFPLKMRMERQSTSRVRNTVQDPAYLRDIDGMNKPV
Sequence of Mu-type opioid receptor (P35372 whole entry): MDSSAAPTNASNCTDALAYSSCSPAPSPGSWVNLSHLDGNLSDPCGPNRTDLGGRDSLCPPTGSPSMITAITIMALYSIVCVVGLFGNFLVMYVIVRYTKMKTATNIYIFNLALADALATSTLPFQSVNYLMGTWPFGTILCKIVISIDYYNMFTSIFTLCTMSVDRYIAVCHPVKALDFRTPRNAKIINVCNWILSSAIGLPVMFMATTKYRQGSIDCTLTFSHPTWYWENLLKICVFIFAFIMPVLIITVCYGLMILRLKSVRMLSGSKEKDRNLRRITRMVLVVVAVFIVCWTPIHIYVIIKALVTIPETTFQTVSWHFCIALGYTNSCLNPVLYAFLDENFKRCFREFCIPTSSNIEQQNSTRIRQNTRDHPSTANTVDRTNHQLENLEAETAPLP
Sequence of Delta-type opioid receptor (P41143 whole entry): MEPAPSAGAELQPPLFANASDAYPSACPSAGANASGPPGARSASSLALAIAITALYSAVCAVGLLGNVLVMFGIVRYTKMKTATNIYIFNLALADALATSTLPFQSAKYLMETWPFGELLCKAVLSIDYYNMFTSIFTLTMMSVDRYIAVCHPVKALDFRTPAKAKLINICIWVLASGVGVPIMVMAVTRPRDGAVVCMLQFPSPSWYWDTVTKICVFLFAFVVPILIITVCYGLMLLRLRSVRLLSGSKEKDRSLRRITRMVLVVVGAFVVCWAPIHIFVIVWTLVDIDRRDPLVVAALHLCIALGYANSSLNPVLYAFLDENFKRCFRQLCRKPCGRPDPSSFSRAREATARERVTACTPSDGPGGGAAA
Sequence of Glutathione S-transferase omega-1 (P78417 whole entry): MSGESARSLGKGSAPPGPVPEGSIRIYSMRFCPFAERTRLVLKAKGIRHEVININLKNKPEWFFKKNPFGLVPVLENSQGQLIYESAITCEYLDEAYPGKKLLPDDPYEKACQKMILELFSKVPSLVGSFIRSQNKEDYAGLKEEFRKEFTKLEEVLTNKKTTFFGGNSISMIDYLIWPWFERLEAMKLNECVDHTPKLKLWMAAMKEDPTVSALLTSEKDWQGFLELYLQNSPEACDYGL
Sequence of Paired box protein Pax-8 (Q06710 whole entry): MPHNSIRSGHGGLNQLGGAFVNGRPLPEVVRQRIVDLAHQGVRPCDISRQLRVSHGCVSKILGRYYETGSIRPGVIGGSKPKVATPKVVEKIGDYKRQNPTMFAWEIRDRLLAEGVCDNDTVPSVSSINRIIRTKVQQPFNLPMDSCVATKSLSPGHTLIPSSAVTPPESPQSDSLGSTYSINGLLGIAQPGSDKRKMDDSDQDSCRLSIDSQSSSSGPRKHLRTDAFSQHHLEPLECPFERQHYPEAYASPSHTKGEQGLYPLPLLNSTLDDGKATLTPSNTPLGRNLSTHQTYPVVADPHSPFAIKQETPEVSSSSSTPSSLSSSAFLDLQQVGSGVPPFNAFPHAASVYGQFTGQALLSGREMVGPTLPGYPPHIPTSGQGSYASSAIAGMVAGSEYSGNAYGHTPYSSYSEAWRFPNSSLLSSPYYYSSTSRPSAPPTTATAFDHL

O=C(Cn1c(=O)c2cccn2c2cccnc21)NCCCN1CCOCC1
inactive: IC50 [1] > 32 µM | IC50 [2] > 32 µM | IC50 [3] > 20 µM | IC50 [4] > 32 µM

COc1ccc(N2CCN(CCCCNC(=O)Cn3c(=O)c4cccn4c4c(C)ccnc43)CC2)cc1
inactive: IC50 [1] > 32 µM | IC50 [2] > 32 µM
active: IC50 [5] 1.59 µM | IC50 [6] 0.907 µM | IC50 [7] 0.00521 µM

NC(=O)Cn1cnc(-c2ccccc2)c1
inactive: IC50 [8] > 50 µM

COc1ccc(N(C(=O)CCl)C(C(=O)NC2CCCCC2)c2cccnc2)cc1 (configuration not stated)
inconclusive: EC50 [11] 7.37 µM | EC50 [12] 2.63 µM
active: EC50 [9] 1.01 µM | EC50 [10] 4.5 µM | IC50 [13] 0.067 µM | AC50 [16] 5.87 µM | AC50 [17] 7.67 µM | EC50 [18] 0.619 µM | AC50 [19] 1.3 µM | AC50 [20] 3.18 µM
inactive: CC50 [14] > 45 µM | CC50 [15] > 35 µM
